In paper PMC6428247, “Potent inhibitors of equine steroid isomerase EcaGST A3-3” (PLoS ONE, 2019):
Structures can show the parent of a compound that is named as a salt. Where two headings read alike, the source gives them in different places.

Assays:
EcaGST A3-3 [1] = biological target: T1, EcaGST A3-3 (Equus caballus, UniProt M9ZT87); experiment: Inhibition of EcaGST A3-3 activity, GSH conjugation with CDNB; assay type: biochemical, Equus ferus caballus; details: for inhibition at 10 µM: read-out: Inhibition (%) of EcaGST A3-3; for IC50: read-out: IC50 EcaGST A3-3, substrate CDNB; for Hill coefficient, CDNB inhibition: dose-response curve, substrate CDNB, mean ± SD
T1 sequence (M9ZT87 entry or part of it): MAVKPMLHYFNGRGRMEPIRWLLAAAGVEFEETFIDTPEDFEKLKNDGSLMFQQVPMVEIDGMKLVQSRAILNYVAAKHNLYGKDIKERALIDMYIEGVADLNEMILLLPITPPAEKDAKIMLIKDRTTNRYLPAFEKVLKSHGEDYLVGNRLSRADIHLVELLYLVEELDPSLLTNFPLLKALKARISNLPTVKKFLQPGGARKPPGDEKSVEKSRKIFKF
Description: The final solvent concentration in the reaction system was kept at 5% (v/v) as a maximum.
(§1) The conjugation of GSH with the electrophilic substrate CDNB was used as a biochemical assay for general activity measurements. Screening of the US Drug library for inhibition was done in triplicates in 96-well plates in a Thermo Scientific Multiskan GO spectrophotometer. The conjugation activity at 30°C was monitored at 340 nm for 1 min in 0.1 M sodium phosphate buffer at pH 6.5 and 10 μM inhibitor concentration in a final volume of 300 μL. Initial concentrations of GSH and CDNB were 1 mM.
Assay conditions for inhibition measurements of enzyme activity with CDNB were the following: EcaGST A3-3 15 nM, initial concentrations of GSH and CDNB 1 mM, inhibitor concentrations varying from 0.029 μM to 15 μM, in 100 mM Na2HPO4/NaH2PO4 at pH 6.5.
The reactions were followed spectrophotometrically for 1 min at 30°C using a Shimadzu UV-2501 PC spectrophotometer (Shimadzu Inc.). All experiments included triplicate measurements in each data point.
The equation for competitive inhibition fitted by non-linear regression was v=Vmax[S]/KM(1+[I]/Ki)+[S] where [S] is the substrate concentrations and [I] is the inhibitor concentration.

EcaGST A3-3 [2] = biological target: T1, EcaGST A3-3; experiment: Inhibition of EcaGST A3-3 steroid double-bond isomerase activity with Δ^5-AD; assay type: biochemical, Equus ferus caballus; details: for Hill coefficient, Δ^5-AD inhibition: dose-response curve, substrate Δ^5-AD, mean ± SD
HsaGST A3-3 = biological target: T2, HsaGST A3-3 (Homo sapiens, UniProt Q16772); experiment: Inhibition of HsaGST A3-3 CDNB activity; assay type: biochemical; details: 1 mM GSH, 1 mM CDNB, pH 6.5, 30°C; for IC50: CDNB activity; for inhibition at 10 µM: pH 6.5, 10 μM inhibitor, read-out: Inhibition (%) of HsaGST A3-3
T2 construct: made in house
T2 sequence (Q16772 1-222): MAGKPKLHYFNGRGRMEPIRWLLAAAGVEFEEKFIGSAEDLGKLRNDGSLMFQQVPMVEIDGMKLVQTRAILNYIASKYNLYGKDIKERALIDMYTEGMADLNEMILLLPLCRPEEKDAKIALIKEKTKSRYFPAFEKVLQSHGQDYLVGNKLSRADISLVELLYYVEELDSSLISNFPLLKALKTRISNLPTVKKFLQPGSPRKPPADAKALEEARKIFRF
Description: (§2) EcaGST A3-3 [10], HsaGST A3-3 [12] and HsaGST M2-2 [13] were cloned, expressed and purified as described previously. Protein concentration was determined by means of the Bradford assay.
as §1
(§3) For understanding the effects of pharmacological interventions based on GST inhibitors, it is important to know the selectivity among the numerous GSTs. […] All values were determined with CDNB, which is a common substrate for all the enzymes.

HsaGST M2-2 = biological target: T3, HsaGST M2-2 (Homo sapiens, UniProt P28161); experiment: Inhibition of HsaGST M2-2 CDNB activity; assay type: biochemical; details: 1 mM GSH, 1 mM CDNB, pH 6.5, 30°C; for inhibition at 10 µM: 10 μM inhibitor; for IC50: CDNB activity, read-out: IC50 HsaGST M2-2
T3 construct: made in house
T3 sequence (P28161 1-218): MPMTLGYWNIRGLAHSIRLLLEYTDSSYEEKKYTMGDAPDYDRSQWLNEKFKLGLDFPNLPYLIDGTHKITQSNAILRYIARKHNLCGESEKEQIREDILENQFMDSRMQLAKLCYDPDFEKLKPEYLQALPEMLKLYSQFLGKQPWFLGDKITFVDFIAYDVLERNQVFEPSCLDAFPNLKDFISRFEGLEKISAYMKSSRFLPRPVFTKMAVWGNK
Description: as §2, §1, §3

HsaGST P1-1 = test system: HsaGST P1-1; design: method as in PMID 23769903; details: 3.3 μM inhibitor, 1 mM GSH, 1 mM CDNB, pH 6.5, 30°C; cited from earlier work
HsaGST S1-1 = test system: HsaGST S1-1; design: method as in PMID 25603235; details: 1 mM GSH, 1 mM CDNB, pH 6.5, 30°C, cited from earlier work; for Inhibition (%) of HsaGST S1-1: 10 μM inhibitor; for IC50: CDNB activity
[3] = 10 μM inhibitor, 1 mM GSH, 1 mM CDNB, sodium phosphate pH 6.5, 30°C
[4] = 1 mM CDNB, 1 mM GSH, 100 mM sodium phosphate pH 6.5, 30°C
[5] = 0.1 mM Δ^5-AD, 1 mM GSH, 25 mM sodium phosphate pH 8.0, 30°C

CC[C@H](C)C(=O)O[C@H]1C[C@@H](C)C=C2C=C[C@H](C)[C@H](CC[C@@H]3C[C@@H](O)CC(=O)O3)[C@H]21 [Lovastatin]
inhibition at 10 µM (EcaGST A3-3 [1]; [3]): 33 ± 15%

COC(=O)Nc1nc2ccc(C(=O)c3ccccc3)cc2[nH]1 [Mebendazole]
inhibition at 10 µM (EcaGST A3-3 [1]; [3]): 35 ± 15%

CC(C)NCC(O)c1cc(O)cc(O)c1 (centres unmarked) [Metaproterenol]
inhibition at 10 µM (EcaGST A3-3 [1]; [3]): 42 ± 24%

COC(=O)C1=C(C)NC(C)=C(C(=O)OCC(C)C)C1c1ccccc1[N+](=O)[O-] (centres unmarked) [Nisoldipine]
inhibition at 10 µM (EcaGST A3-3 [1]; [3]): 75 ± 2.3% | IC50 EcaGST A3-3, substrate CDNB (EcaGST A3-3 [1]; [4]): Anomalous curve | IC50 EcaGST A3-3, substrate Δ^5-AD (EcaGST A3-3 [2]; [5]): Anomalous curve | IC50 (HsaGST A3-3): 4100 nM | inhibition at 10 µM (HsaGST A3-3): 70% | inhibition at 10 µM (HsaGST M2-2; read-out: Inhibition (%) of HsaGST M2-2): 35% | Inhibition (%) of HsaGST P1-1 (HsaGST P1-1): 14% | Inhibition (%) of HsaGST S1-1 (HsaGST S1-1): 42% | IC50 (HsaGST S1-1): 29000 nM

CN1CCCN=C1/C=C/c1cccc(O)c1 [Oxantel pamoate]
IC50 (HsaGST M2-2): 1700 nM

CCc1ccc(CCOc2ccc(CC3SC(=O)NC3=O)cc2)nc1 (centres unmarked) [Pioglitazone]
IC50 (HsaGST M2-2): 5900 nM

Nc1ccc(C(=O)[O-])cc1.[K+] [Potassium p-aminobenzoate]
Inhibition (%) of EcaGST A3-3 (EcaGST A3-3 [1]; [3]): 30±16%

CN1CCCN=C1/C=C/c1cccs1 [Pyrantel pamoate]
IC50 (HsaGST M2-2): 1400 nM

Cc1cc(/C=C/c2ccc3cc(N(C)C)ccc3[n+]2C)c(C)n1-c1ccccc1 [Pyrvinium pamoate]
IC50 (HsaGST M2-2): 1200 nM

C[n+]1cc2c3c(ccc2c2ccc4cc5c(cc4c21)OCO5)OCO3 [Sanguinarine sulfate]
inhibition at 10 µM (EcaGST A3-3 [1]; [3]): 47 ± 19%

O=C(O)c1cc(O)c2c(c1)[C@H]([C@H]1c3cc(C(=O)O)cc(O)c3C(=O)c3c(O[C@@H]4O[C@H](CO)[C@@H](O)[C@H](O)[C@H]4O)cccc31)c1cccc(O[C@@H]3O[C@H](CO)[C@@H](O)[C@H](O)[C@H]3O)c1C2=O [Sennoside A]
inhibition at 10 µM (EcaGST A3-3 [1]; [3]): 100% | IC50 (EcaGST A3-3 [1]; [4]): 2800 ± 280 nM | Hill coefficient, CDNB inhibition (EcaGST A3-3 [1]): 2.2±0.41 | IC50 (EcaGST A3-3 [2]): 110 ± 8.2 nM | IC50 EcaGST A3-3, substrate Δ^5-AD (EcaGST A3-3 [2]; [5]): submicromolar range | Hill coefficient, Δ^5-AD inhibition (EcaGST A3-3 [2]): 2.1±0.29 | Times more potent with Δ^5-AD as substrate than with CDNB (EcaGST A3-3 [2]; ratio of IC50 values CDNB vs Δ^5-AD, EcaGST A3-3): approximately 25 times | IC50 (HsaGST A3-3): 980 nM | inhibition at 10 µM (HsaGST A3-3): 90% | inhibition at 10 µM (HsaGST M2-2; read-out: Inhibition (%) of HsaGST M2-2 (symbol)): < 30% | Inhibition (%) of HsaGST P1-1 (HsaGST P1-1): < 4% | Inhibition (%) of HsaGST S1-1 (HsaGST S1-1): 30% | IC50 (HsaGST S1-1): 39000 nM

O=C(O)c1cc(/N=N/c2ccc(S(=O)(=O)Nc3ccccn3)cc2)ccc1O [Sulfasalazine]
inhibition at 10 µM (EcaGST A3-3 [1]; [3]): ≤ 30% | IC50 (HsaGST M2-2): 300 nM

CC1=C(CC(=O)O)c2cc(F)ccc2/C1=C\c1ccc([S+](C)[O-])cc1 (centres unmarked) [Sulindac]
IC50 (HsaGST M2-2): 23000 nM

Cc1ccc(C(=O)Nc2ccc(S(=O)(=O)O)c3cc(S(=O)(=O)O)cc(S(=O)(=O)O)c23)cc1NC(=O)c1cccc(NC(=O)Nc2cccc(C(=O)Nc3cc(C(=O)Nc4ccc(S(=O)(=O)O)c5cc(S(=O)(=O)O)cc(S(=O)(=O)O)c45)ccc3C)c2)c1 [Suramin]
inhibition at 10 µM (EcaGST A3-3 [1]; [3]): ≤ 30% | IC50 (HsaGST M2-2): 620 nM | IC50 (HsaGST S1-1): 300 nM

O=C(OCC1OC(OC(=O)c2cc(O)c(O)c(OC(=O)c3cc(O)c(O)c(O)c3)c2)C(OC(=O)c2cc(O)c(O)c(OC(=O)c3cc(O)c(O)c(O)c3)c2)C(OC(=O)c2cc(O)c(O)c(OC(=O)c3cc(O)c(O)c(O)c3)c2)C1OC(=O)c1cc(O)c(O)c(OC(=O)c2cc(O)c(O)c(O)c2)c1)c1cc(O)c(O)c(OC(=O)c2cc(O)c(O)c(O)c2)c1 (centres unmarked) [Tannic acid]
IC50 (EcaGST A3-3 [1]; [4]): 330 ± 18 nM | Hill coefficient, CDNB inhibition (EcaGST A3-3 [1]): 2.2±0.23 | IC50 EcaGST A3-3, substrate Δ^5-AD (EcaGST A3-3 [2]; [5]): submicromolar range | Hill coefficient, Δ^5-AD inhibition (EcaGST A3-3 [2]): 2.1±0.63 | IC50 (EcaGST A3-3 [2]; read-out: IC50 EcaGST A3-3, substrate Δ^5-AD, 0.1 mM Δ^5-AD, 1 mM GSH, 25 mM sodium phosphate pH 8.0, 30°C): 220 ± 34 nM | IC50 (HsaGST A3-3): 210 nM | IC50 (HsaGST M2-2): 1200 nM | Inhibition (%) of HsaGST P1-1 (HsaGST P1-1): < 4% | Inhibition (%) of HsaGST S1-1 (HsaGST S1-1): 100% | IC50 (HsaGST S1-1): 350 nM
